From ChEMBL document CHEMBL1201862, “PubChem BioAssay data set” (2004) come the findings set out here.

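The compound was tested at five concentrations on cells cultured in 96-well plates, with a 48-hour exposure period. GI50: concentration for 50% inhibition of growth.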 Activity calls are given as the source filed them. No stated cut-off is given here; in the data, active = GI50 up to about 1.1 µM and inactive = higher.

Among the test systems are NCI-H226; IGROV-1; HT-29; CAKI-1; KM12; NCI-H522; OVCAR-8; SF-268; LOX IMVI; UO-31; M14; OVCAR-4; SK-MEL-28; NCI-H460; U-251; HCC 2998; SK-OV-3; HCT-116; OVCAR-5.
Experiment in all cases: NCI anticancer screen, dose series, 48 h

In the case of `CS(=O)(=O)CSCSSCS(C)(=O)=O`, the GI50 in the test on NCI-H226 was > 100 µM (inactive); in the test with IGROV-1 it was 51.8 µM (inactive); in the test on HT-29, > 59.7 µM (inactive); with CAKI-1, 25.4 µM (inactive); with KM12, 44.2 µM (inactive); with NCI-H522, 14.9 µM (inactive). The GI50 with OVCAR-8 is 30.2 µM (inactive); with SF-268 it was 26.2 µM (inactive); in the test on LOX IMVI, 13.6 µM (inactive); in the test on UO-31 it was 32.1 µM (inactive); in the test with M14, 19.2 µM (inactive); in the test on OVCAR-4, 33 µM (inactive). Further, the GI50 is 24.6 µM (inactive) with SK-MEL-28; 26.2 µM (inactive) in the test with NCI-H460; 37.1 µM (inactive) in the test on U-251; > 100 µM (inactive) in the test on HCC 2998; > 100 µM (inactive) in the test on SK-OV-3; 34.4 µM (inactive) in the test with HCT-116. Moreover, in the test on OVCAR-5, the GI50 was 43.2 µM (inactive).
For the compound `CCOC(=O)CCn1[nH]c(=O)c(Cl)c(Cl)c1=O`, the GI50 in the test on NCI-H226, in the test on IGROV-1, in the test with HT-29, in the test with CAKI-1, in the test with NCI-H522 and in the test with OVCAR-8 was > 100 µM (inactive) each time. Moreover, the GI50 in the test on SF-268, in the test with LOX IMVI, in the test on UO-31, with M14, in the test on OVCAR-4 and in the test on SK-MEL-28 was > 100 µM (inactive) throughout. In addition, the GI50 in the test with NCI-H460, with U-251, in the test with HCC 2998, in the test with SK-OV-3, with HCT-116 and in the test with OVCAR-5 was > 100 µM (inactive) each time.
Take `COC(=O)/C=C\C1C(C(=O)OC)C2(C(=O)OC)CCC1(C(=O)OC)N2` (configuration not stated): the GI50 with NCI-H226 was 19.1 µM (inactive); with IGROV-1 it was 26.9 µM (inactive); in the test on HT-29, 21.2 µM (inactive); with CAKI-1, 2.88 µM (inactive); in the test with KM12 it was 20.5 µM (inactive); with NCI-H522, 0.681 µM (active). The GI50 with OVCAR-8 was 7.19 µM (inactive); in the test on SF-268 it was 23.8 µM (inactive); with LOX IMVI it was 13.4 µM (inactive); in the test on UO-31, 17 µM (inactive); in the test on M14, 14.9 µM (inactive); in the test with OVCAR-4, 19.1 µM (inactive). The GI50 in the test on SK-MEL-28 is 13.6 µM (inactive); in the test on NCI-H460, 21.6 µM (inactive); in the test with U-251, 18.5 µM (inactive); in the test on HCC 2998 it was 17.3 µM (inactive); in the test with SK-OV-3, 17.9 µM (inactive); with HCT-116, 13.8 µM (inactive). Besides, the GI50 in the test with OVCAR-5 was 20 µM (inactive).
Take `COC(=O)C(C(=O)C(=O)Nc1c(Cl)cc([N+](=O)[O-])cc1Cl)c1csc(-n2nc(C3=CCCCC3)cc2-c2ccccc2)n1` (configuration not stated): the GI50 is 25.4 µM (inactive) in the test on NCI-H226; 25.9 µM (inactive) in the test with HT-29; 46.9 µM (inactive) in the test with CAKI-1; 45 µM (inactive) with KM12; 45.2 µM (inactive) in the test with NCI-H522; 61.7 µM (inactive) with OVCAR-8. Besides, the GI50 in the test with SF-268 is 71.8 µM (inactive); in the test with LOX IMVI it was 43.9 µM (inactive); with UO-31, 25.9 µM (inactive); in the test on M14, > 100 µM (inactive); with OVCAR-4, > 100 µM (inactive); in the test on NCI-H460, 82.8 µM (inactive). Further, the GI50 in the test with U-251 was > 100 µM (inactive); with HCC 2998 it was > 100 µM (inactive); in the test with SK-OV-3, 34.3 µM (inactive); in the test on HCT-116, 42.5 µM (inactive); in the test with OVCAR-5 it was 35 µM (inactive).
Regarding `C[C@]12CCC(=O)C=C1CC[C@@H]1[C@@H]2[C@@H](O)C[C@@]2(C)[C@H]1CC[C@]2(O)C(=O)COC(=O)COCC(=O)O`, the GI50 in the test with NCI-H226, in the test on IGROV-1, in the test on HT-29, with CAKI-1, in the test on KM12 and with NCI-H522 was > 100 µM (inactive) each time. For the same compound, the GI50 with OVCAR-8, with SF-268, with LOX IMVI, in the test on UO-31, in the test on M14 and in the test with OVCAR-4 was > 100 µM (inactive) in each case. Further, the GI50 with SK-MEL-28, with NCI-H460, in the test with U-251, in the test on HCC 2998, in the test on SK-OV-3 and with HCT-116 was > 100 µM (inactive) throughout. The GI50 with OVCAR-5 was > 100 µM (inactive).
As to `COc1c2ccoc2c(S(=O)(=O)Nc2ccc(Cl)cc2)c2oc(C)cc(=O)c12`, the GI50 was > 81.1 µM (inactive) in the test with NCI-H226; > 100 µM (inactive) in the test on IGROV-1; > 100 µM (inactive) with HT-29; > 34.9 µM (inactive) with CAKI-1; > 100 µM (inactive) in the test on KM12; 73.6 µM (inactive) with NCI-H522. Also, the GI50 in the test on OVCAR-8 was 58.3 µM (inactive); with SF-268 it was 52.6 µM (inactive); in the test with LOX IMVI it was > 100 µM (inactive); with UO-31 it was > 50.9 µM (inactive); in the test with OVCAR-4, 32.5 µM (inactive); with SK-MEL-28, > 100 µM (inactive). For the same compound, the GI50 was > 100 µM (inactive) in the test with NCI-H460; > 100 µM (inactive) in the test with U-251; > 100 µM (inactive) in the test on HCC 2998; > 100 µM (inactive) in the test with SK-OV-3; 36 µM (inactive) with HCT-116; > 100 µM (inactive) in the test on OVCAR-5.
For `CC(C)(CN1CCCCC1)C(=O)/C=C/c1ccccc1`, the GI50 in the test on NCI-H226 was 29 µM (inactive); in the test with IGROV-1 it was 22.8 µM (inactive); in the test on HT-29, 7.36 µM (inactive); in the test with CAKI-1, 17.3 µM (inactive); in the test on KM12, 9.25 µM (inactive); in the test with NCI-H522, 13.2 µM (inactive). Besides, the GI50 was 15.8 µM (inactive) with OVCAR-8; 13.3 µM (inactive) with SF-268; 18.8 µM (inactive) in the test with LOX IMVI; 15.2 µM (inactive) in the test with UO-31; 18.7 µM (inactive) in the test on M14; 26 µM (inactive) with OVCAR-4. Moreover, the GI50 was 15.6 µM (inactive) in the test on SK-MEL-28; 22.4 µM (inactive) in the test with NCI-H460; 21.5 µM (inactive) in the test with U-251; 14.7 µM (inactive) in the test with HCC 2998; 21.3 µM (inactive) with SK-OV-3; 15.3 µM (inactive) in the test on HCT-116. The GI50 with OVCAR-5 is 19.9 µM (inactive).
On to `COC1=CC(=O)[C@]2(C)[C@H](C1=O)C(C)[C@H]2c1ccccc1` (some centres not stated), for which the GI50 in the test on NCI-H226, in the test with IGROV-1, with HT-29, in the test on CAKI-1, in the test on KM12 and in the test with NCI-H522 was > 100 µM (inactive) throughout. Further, the GI50 in the test on OVCAR-8, with SF-268, in the test with LOX IMVI, in the test with UO-31, with M14 and in the test on OVCAR-4 was > 100 µM (inactive) in each case. Also, the GI50 in the test on SK-MEL-28, in the test with NCI-H460, in the test with U-251, in the test on HCC 2998, with SK-OV-3 and in the test on OVCAR-5 was > 100 µM (inactive) throughout.
